Data taken from ChEMBL document CHEMBL2311490 (Bioorg Med Chem Lett, 2013).

What was measured:
[1] = species: Xenopus laevis; experiment: Antimelanogenic activity in Xenopus laevis tadpoles assessed as melanophore aggregation by microscopy relative to melatonin; format: functional
[2] = species: Xenopus laevis; experiment: Antimelanogenic activity in Xenopus laevis tadpoles assessed as melanophore aggregation by microscopy; format: functional, organism-based
[3] = target: Melatonin receptor type 1A (Homo sapiens, UniProt P48039); experiment: Displacement of [125I]2-iodomelatonin from human recombinant MT1 receptor expressed in HEK293 cells after 2 hrs by gamma counting; format: cell-based
Chain of Melatonin receptor type 1A (P48039 whole entry): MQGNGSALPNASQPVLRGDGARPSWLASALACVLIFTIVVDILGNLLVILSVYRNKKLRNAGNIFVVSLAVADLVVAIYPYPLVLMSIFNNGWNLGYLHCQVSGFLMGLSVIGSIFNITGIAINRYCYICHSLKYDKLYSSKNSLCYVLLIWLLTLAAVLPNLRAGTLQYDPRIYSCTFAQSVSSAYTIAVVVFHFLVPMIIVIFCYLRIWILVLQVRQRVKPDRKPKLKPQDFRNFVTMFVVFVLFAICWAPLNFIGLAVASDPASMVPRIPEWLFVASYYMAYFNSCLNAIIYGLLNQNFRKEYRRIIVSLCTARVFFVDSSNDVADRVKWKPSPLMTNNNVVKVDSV

[4] = target: T1, Melatonin receptor type 1B (Homo sapiens, UniProt P49286); experiment: Displacement of [125I]2-iodomelatonin from human recombinant MT2 receptor expressed in HEK293 cells after 2 hrs by gamma counting; format: cell-based
T1 sequence (P49286 whole entry): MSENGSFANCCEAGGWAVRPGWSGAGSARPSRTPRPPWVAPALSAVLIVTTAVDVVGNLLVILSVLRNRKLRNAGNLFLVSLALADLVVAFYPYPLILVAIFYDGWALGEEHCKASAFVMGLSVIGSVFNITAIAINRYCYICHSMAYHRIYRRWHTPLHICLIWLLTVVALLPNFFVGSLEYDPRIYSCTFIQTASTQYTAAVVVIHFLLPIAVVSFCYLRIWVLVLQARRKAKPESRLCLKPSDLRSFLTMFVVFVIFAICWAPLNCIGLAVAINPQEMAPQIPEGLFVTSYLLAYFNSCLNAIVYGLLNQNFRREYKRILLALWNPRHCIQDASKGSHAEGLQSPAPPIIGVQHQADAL

[5] = Displacement of [125I]2-iodomelatonin from melatonin receptor in chicken brain membranes after 60 mins by gamma counting; format: cell membranes, Gallus gallus, Membrane
[6] = species: Xenopus laevis; experiment: Ratio of melatonin EC50 to compound EC50 for antimelanogenic activity in Xenopus laevis tadpoles assessed as melanophore aggregation by microscopy; format: functional

For `CC(=O)N/C=C/c1cccc2ccccc12`, the “fold change (FC)” value [1] was 0.0031, the EC50 [2] was 854 nM and the Ki [3] was 6.7 nM. It also gave a Ki [4] of 1.4 nM.

For `COc1cccc(/C=C/NC(C)=O)c1`, the Ki [5] was 803 nM.

With `CNC(=O)N/C=C/c1ccccc1OC` the Ki [3] was over 1000 nM and the Ki [4] was over 1000 nM.

Work on `COc1ccc(OC)c(/C=C/NC(C)=O)c1` yielded a Ki [5] of 283 nM.

In the case of `CNC(=O)N/C=C/c1cc(OC)ccc1OC`, the Ki [5] is reported as over 1000 nM.

Work on `CNC(=O)N/C=C/c1cccc2ccccc12` yielded a Ki [5] of 139 nM, a Ki [3] of 25 nM and a Ki [4] of 15 nM.

In the case of `COc1ccc2cccc(/C=C/NC(C)=O)c2c1`, the “fold change (FC)” value [1] is reported as 6.1, the Ki [5] is reported as 0.16 nM and the EC50 [2] is reported as 0.035 nM. For the same compound, the Ki [3] was 0.04 nM and the Ki [4] was 0.03 nM.

With `CNC(=O)N/C=C/c1cccc2ccc(OC)cc12` the Ki [5] was 0.44 nM.

With `COc1ccc2ccccc2c1/C=C/NC(C)=O` the “fold change (FC)” value [1] was 0.028, the Ki [5] was 4.6 nM and the EC50 [2] was 93.5 nM. For the same compound, the Ki [3] was 0.1 nM and the Ki [4] was 0.09 nM.

Work on `CNC(=O)N/C=C/c1c(OC)ccc2ccccc12` yielded a Ki [5] of 36.6 nM, a Ki [3] of 3.1 nM and a Ki [4] of 6.5 nM.

With `COc1ccc2ccc(OC)c(/C=C/NC(C)=O)c2c1` the “fold change (FC)” value [1] was 3473, the Ki [5] was 0.012 nM and the EC50 [2] was 0.00076 nM. The “Ratio EC50” value [6] was 1000, the Ki [3] was 0.03 nM and the Ki [4] was 0.07 nM.

`CNC(=O)N/C=C/c1c(OC)ccc2ccc(OC)cc12` showed a Ki [5] of 0.08 nM, a Ki [3] of 0.2 nM and a Ki [4] of 0.3 nM.

With `COc1ccccc1/C=C/NC(C)=O` the Ki [5] was over 1000 nM.

`COc1ccc(OC)c([C@@H]2C[C@@H]2NC(C)=O)c1` (racemic) showed a Ki [5] of over 1000 nM.

In the case of `CC(=O)N[C@@H]1C[C@H]1c1cccc2ccccc12` (racemic), the Ki [5] is reported as 128 nM, the EC50 [2] is reported as over 10000 nM and the Ki [3] is reported as 19 nM. It also gave a Ki [4] of 6.8 nM.

For `COc1ccc2cccc([C@@H]3C[C@H]3NC(C)=O)c2c1` (racemic), the “fold change (FC)” value [1] was 0.017, the Ki [5] was 1.6 nM and the EC50 [2] was 155 nM. The Ki [3] was 0.3 nM and the Ki [4] was 0.7 nM.

In the case of `COc1ccc2ccccc2c1[C@@H]1C[C@H]1NC(C)=O` (racemic), the “fold change (FC)” value [1] is reported as 0.025, the Ki [5] is reported as 15 nM and the EC50 [2] is reported as 101 nM. For the same compound, the Ki [3] was 3.7 nM and the Ki [4] was 2.6 nM.

In the case of `COc1ccc2ccc(OC)c([C@@H]3C[C@H]3NC(C)=O)c2c1` (racemic), the “fold change (FC)” value [1] is reported as 264, the Ki [5] is reported as 0.46 nM and the EC50 [2] is reported as 0.01 nM. The Ki [3] was 0.06 nM and the Ki [4] was 0.2 nM.

Compound `COc1cccc([C@@H]2C[C@H]2NC(C)=O)c1` (racemic) has a Ki [5] of 93 nM.

For `COc1ccccc1[C@@H]1C[C@H]1NC(C)=O` (racemic), the Ki [5] was over 1000 nM.

`COc1ccc(OC)c([C@@H]2C[C@H]2NC(C)=O)c1` (racemic) gave a Ki [5] of 130 nM, a Ki [3] of 87 nM and a Ki [4] of 86 nM.

For `COc1ccc2cccc(CCNC(C)=O)c2c1` [AGOMELATINE], the Ki [5] was 0.67 nM and the EC50 [2] was 0.35 nM.

With `COc1ccc2[nH]cc(CCNC(C)=O)c2c1` [MELATONIN] the Ki [5] was 0.54 nM.
